Data as given in patent US9340590B2 (priority 2011, dated 2016).
Positions of bridges follow the written chain, without caps; N, C: chain ends. Residues, ends and D or L forms follow the SMILES beside them.

What was measured:
Experiment in all cases: cell-based
hNav1.3 = hNav1.3 (Homo sapiens, UniProt Q9NY46); conditions: IonWorks Quattro, use-dependent block, hNav1.3; read-out: IWQ Use Nav1.3
hNav1.7 = hNav1.7 (Homo sapiens, UniProt Q15858); assay type: cell-based; conditions: IonWorks Quattro, use-dependent block, hNav1.7; read-out: IWQ Use Nav1.7
hNav1.5 = hNav1.5 (Homo sapiens, UniProt Q14524); conditions: IonWorks Quattro, use-dependent block, hNav1.5; read-out: IWQ Use Nav1.5
hNav1.5, sequence (Q14524 whole entry, looked up): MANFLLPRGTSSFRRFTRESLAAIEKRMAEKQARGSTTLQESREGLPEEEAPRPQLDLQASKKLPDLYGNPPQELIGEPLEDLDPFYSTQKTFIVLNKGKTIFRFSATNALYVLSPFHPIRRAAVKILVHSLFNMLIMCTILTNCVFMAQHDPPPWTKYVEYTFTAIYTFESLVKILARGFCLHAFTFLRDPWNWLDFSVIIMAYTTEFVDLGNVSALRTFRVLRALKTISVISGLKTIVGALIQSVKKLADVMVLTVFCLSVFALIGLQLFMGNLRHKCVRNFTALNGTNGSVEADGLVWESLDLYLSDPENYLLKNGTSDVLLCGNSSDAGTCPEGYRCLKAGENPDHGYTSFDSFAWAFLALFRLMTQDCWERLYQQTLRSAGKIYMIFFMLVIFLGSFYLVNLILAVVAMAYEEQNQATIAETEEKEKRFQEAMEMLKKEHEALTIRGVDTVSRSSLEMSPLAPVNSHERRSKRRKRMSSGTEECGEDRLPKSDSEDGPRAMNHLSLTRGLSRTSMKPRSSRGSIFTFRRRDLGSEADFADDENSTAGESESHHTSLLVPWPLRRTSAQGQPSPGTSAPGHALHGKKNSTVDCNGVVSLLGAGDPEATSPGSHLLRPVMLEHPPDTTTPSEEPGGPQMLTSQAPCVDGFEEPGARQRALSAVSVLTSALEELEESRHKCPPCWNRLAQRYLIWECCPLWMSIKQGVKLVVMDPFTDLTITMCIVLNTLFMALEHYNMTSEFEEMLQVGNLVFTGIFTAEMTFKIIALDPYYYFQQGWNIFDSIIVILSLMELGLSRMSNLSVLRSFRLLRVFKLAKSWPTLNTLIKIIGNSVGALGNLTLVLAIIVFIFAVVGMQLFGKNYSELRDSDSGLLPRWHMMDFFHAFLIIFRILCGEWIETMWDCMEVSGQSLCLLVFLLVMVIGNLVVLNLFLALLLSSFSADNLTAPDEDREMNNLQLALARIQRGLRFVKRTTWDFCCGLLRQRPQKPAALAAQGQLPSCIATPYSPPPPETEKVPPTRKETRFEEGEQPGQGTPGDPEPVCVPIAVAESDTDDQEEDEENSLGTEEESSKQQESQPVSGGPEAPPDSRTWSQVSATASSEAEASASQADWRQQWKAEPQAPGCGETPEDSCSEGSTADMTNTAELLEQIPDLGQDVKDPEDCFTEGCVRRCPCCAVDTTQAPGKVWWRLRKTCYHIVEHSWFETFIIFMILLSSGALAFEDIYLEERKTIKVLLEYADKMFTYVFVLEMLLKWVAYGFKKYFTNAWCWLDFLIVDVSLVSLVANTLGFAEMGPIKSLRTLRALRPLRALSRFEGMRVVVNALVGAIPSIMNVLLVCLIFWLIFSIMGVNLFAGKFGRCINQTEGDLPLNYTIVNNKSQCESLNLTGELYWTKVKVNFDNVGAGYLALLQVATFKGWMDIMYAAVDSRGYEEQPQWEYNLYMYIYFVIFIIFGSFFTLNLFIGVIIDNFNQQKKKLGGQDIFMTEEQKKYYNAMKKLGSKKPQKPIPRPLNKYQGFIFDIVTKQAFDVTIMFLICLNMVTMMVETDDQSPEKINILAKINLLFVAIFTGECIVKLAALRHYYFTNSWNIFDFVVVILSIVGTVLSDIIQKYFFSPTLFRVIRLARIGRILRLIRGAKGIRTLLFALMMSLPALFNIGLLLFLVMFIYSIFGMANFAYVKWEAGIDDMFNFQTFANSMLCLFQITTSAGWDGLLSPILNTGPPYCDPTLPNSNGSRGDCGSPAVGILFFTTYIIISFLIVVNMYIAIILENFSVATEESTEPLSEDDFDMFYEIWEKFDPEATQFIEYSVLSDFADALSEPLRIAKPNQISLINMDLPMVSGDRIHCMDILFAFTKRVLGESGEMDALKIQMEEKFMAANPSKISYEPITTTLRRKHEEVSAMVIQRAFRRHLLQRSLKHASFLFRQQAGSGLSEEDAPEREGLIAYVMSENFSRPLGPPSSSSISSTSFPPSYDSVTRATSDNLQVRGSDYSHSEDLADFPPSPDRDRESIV

hNav1.3, sequence (Q9NY46 whole entry, looked up): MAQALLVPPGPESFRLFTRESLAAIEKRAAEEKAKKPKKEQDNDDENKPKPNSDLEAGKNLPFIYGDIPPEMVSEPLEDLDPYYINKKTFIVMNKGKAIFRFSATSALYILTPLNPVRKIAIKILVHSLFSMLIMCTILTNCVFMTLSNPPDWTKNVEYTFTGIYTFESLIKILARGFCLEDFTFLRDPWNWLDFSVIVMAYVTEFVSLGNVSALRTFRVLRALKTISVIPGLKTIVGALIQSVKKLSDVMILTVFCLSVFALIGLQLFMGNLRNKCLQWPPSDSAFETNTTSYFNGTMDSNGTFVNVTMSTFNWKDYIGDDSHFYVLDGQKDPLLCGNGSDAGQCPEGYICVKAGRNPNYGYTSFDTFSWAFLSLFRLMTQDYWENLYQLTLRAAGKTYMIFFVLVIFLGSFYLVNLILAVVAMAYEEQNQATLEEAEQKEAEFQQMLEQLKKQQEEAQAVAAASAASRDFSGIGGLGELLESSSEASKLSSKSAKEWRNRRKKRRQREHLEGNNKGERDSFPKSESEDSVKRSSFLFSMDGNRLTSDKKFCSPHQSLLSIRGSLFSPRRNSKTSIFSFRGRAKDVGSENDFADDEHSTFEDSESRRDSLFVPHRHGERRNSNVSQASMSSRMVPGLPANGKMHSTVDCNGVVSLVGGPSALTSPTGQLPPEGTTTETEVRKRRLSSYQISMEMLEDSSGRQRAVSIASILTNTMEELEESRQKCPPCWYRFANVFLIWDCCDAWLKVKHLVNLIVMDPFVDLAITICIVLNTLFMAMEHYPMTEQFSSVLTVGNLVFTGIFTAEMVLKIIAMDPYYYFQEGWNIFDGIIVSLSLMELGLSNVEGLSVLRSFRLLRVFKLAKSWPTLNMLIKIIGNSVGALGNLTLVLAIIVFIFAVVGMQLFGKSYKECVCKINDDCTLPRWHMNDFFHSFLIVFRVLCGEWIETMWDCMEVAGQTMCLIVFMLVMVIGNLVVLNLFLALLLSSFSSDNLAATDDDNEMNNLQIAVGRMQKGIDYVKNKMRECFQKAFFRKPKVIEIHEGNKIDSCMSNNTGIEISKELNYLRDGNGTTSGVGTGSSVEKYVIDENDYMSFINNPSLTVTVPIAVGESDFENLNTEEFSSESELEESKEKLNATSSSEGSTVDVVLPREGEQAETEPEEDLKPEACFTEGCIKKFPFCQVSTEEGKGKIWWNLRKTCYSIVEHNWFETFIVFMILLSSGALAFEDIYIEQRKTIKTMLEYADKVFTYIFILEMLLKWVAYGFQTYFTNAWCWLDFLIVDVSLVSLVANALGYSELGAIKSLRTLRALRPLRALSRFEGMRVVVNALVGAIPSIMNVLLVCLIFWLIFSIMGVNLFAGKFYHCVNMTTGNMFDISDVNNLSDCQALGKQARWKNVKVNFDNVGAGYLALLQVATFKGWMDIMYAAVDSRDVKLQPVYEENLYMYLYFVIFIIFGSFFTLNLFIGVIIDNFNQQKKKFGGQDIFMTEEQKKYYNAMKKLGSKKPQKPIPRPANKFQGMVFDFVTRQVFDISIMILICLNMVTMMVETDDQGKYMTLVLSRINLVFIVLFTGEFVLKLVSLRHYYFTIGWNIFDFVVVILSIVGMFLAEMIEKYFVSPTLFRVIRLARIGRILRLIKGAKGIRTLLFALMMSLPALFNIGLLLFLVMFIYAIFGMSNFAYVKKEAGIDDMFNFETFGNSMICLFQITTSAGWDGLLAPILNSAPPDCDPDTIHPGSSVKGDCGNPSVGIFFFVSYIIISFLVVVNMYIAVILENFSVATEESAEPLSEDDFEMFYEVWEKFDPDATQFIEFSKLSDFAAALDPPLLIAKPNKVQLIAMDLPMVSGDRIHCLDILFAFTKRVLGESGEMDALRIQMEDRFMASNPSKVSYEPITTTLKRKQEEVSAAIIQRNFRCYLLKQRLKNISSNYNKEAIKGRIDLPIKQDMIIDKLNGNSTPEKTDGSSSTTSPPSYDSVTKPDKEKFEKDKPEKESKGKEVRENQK

SMILES | IC50 (hNav1.3) [µM] | IC50 (hNav1.7) [µM] | IC50 (hNav1.5) [µM]
CC[C@H](C)[C@@H]1NC(=O)[C@@H]2CSSC[C@@H]3NC(=O)[C@H](C(C)C)NC(=O)[C@H](CC(C)C)NC(=O)[C@H](CC(N)=O)NC(=O)[C@@H]4CCCN4C(=O)[C@H](CCCNC(=N)N)NC(=O)[C@H](CSSC[C@H](NC(=O)[C@@H](N)CC(=O)O)C(=O)N[C@@H](CC(C)C)C(=O)NCC(=O)N[C@@H](C)C(=O)N[C@@H](CCSC)C(=O)N[C@@H](CCCNC(=N)N)C(=O)N[C@@H](CCCCN)C(=O)N2)NC(=O)[C@H](CSSC[C@@H](C(=O)N[C@@H](CCCCN)C(=O)N[C@@H](Cc2ccc(O)cc2)C(=O)N[C@H](C(=O)N[C@@H](CCC(=O)O)C(N)=O)C(C)C)NC(=O)[C@H](Cc2c[nH]c4ccccc24)NC(=O)[C@H](CCCCN)NC(=O)[C@H](Cc2c[nH]cn2)NC(=O)[C@H]([C@@H](C)O)NC(=O)[C@H](CCCNC(=N)N)NC(=O)[C@H](CO)NC3=O)NC(=O)[C@H](CCCCN)NC(=O)[C@H](CC(=O)O)NC(=O)[C@H](CC(N)=O)NC(=O)[C@H](CC(=O)O)NC(=O)[C@@H]2CCCN2C1=O [compound 430] (H-DCLGAMRKCIPDNDKCCRPNLVCSRTHKWCKYVE-NH2; disulfide 2-17, 9-23, 16-30) | > 5 | > 5 | > 5
CC[C@H](C)[C@@H]1NC(=O)[C@@H]2CSSC[C@@H]3NC(=O)[C@H](C(C)C)NC(=O)[C@H](CC(C)C)NC(=O)[C@H](CC(N)=O)NC(=O)[C@@H]4CCCN4C(=O)[C@H](CCCNC(=N)N)NC(=O)[C@H](CSSC[C@H](NC(=O)[C@@H](N)CC(=O)O)C(=O)N[C@@H](CC(C)C)C(=O)NCC(=O)N[C@@H](C)C(=O)N[C@@H](CCSC)C(=O)N[C@@H](CCCNC(=N)N)C(=O)N[C@@H](CCCCN)C(=O)N2)NC(=O)[C@H](CSSC[C@@H](C(=O)N[C@@H](CCCCN)C(=O)N[C@@H](Cc2ccc(O)cc2)C(=O)N[C@H](C(=O)N[C@@H](C)C(N)=O)C(C)C)NC(=O)[C@H](Cc2c[nH]c4ccccc24)NC(=O)[C@H](CCCCN)NC(=O)[C@H](Cc2c[nH]cn2)NC(=O)[C@H]([C@@H](C)O)NC(=O)[C@H](CCCNC(=N)N)NC(=O)[C@H](CO)NC3=O)NC(=O)[C@H](CCCCN)NC(=O)[C@H](CC(=O)O)NC(=O)[C@H](CC(N)=O)NC(=O)[C@H](CC(=O)O)NC(=O)[C@@H]2CCCN2C1=O [compound 431] (H-DCLGAMRKCIPDNDKCCRPNLVCSRTHKWCKYVA-NH2; disulfide 2-17, 9-23, 16-30) | > 5 | > 5 | > 5
CC[C@H](C)[C@@H]1NC(=O)[C@@H]2CSSC[C@@H]3NC(=O)[C@H](C(C)C)NC(=O)[C@H](CC(C)C)NC(=O)[C@H](CC(N)=O)NC(=O)[C@@H]4CCCN4C(=O)[C@H](CCCNC(=N)N)NC(=O)[C@H](CSSC[C@H](NC(=O)[C@@H](N)CC(=O)O)C(=O)N[C@@H](CC(C)C)C(=O)NCC(=O)N[C@@H](C)C(=O)N[C@@H](CCSC)C(=O)N[C@@H](CCCNC(=N)N)C(=O)N[C@@H](CCCCN)C(=O)N2)NC(=O)[C@H](CSSC[C@@H](C(=O)N[C@@H](CCCCN)C(=O)N[C@@H](C)C(=O)N[C@H](C(=O)N[C@@H](Cc2ccccc2)C(N)=O)C(C)C)NC(=O)[C@H](Cc2c[nH]c4ccccc24)NC(=O)[C@H](CCCCN)NC(=O)[C@H](Cc2c[nH]cn2)NC(=O)[C@H]([C@@H](C)O)NC(=O)[C@H](CCCNC(=N)N)NC(=O)[C@H](CO)NC3=O)NC(=O)[C@H](CCCCN)NC(=O)[C@H](CC(=O)O)NC(=O)[C@H](CC(N)=O)NC(=O)[C@H](CC(=O)O)NC(=O)[C@@H]2CCCN2C1=O [compound 432] (H-DCLGAMRKCIPDNDKCCRPNLVCSRTHKWCKAVF-NH2; disulfide 2-17, 9-23, 16-30) | > 5 | > 5 | > 5
CC[C@H](C)[C@@H]1NC(=O)[C@@H]2CSSC[C@@H]3NC(=O)[C@H](C(C)C)NC(=O)[C@H](CC(C)C)NC(=O)[C@H](CC(N)=O)NC(=O)[C@@H]4CCCN4C(=O)[C@H](CCCNC(=N)N)NC(=O)[C@H](CSSC[C@H](NC(=O)[C@@H](N)CC(=O)O)C(=O)N[C@@H](CC(C)C)C(=O)NCC(=O)N[C@@H](C)C(=O)N[C@@H](CCSC)C(=O)N[C@@H](CCCNC(=N)N)C(=O)N[C@@H](CCCCN)C(=O)N2)NC(=O)[C@H](CSSC[C@@H](C(=O)N[C@@H](C)C(=O)N[C@@H](Cc2ccc(O)cc2)C(=O)N[C@H](C(=O)N[C@@H](Cc2ccccc2)C(N)=O)C(C)C)NC(=O)[C@H](Cc2c[nH]c4ccccc24)NC(=O)[C@H](CCCCN)NC(=O)[C@H](Cc2c[nH]cn2)NC(=O)[C@H]([C@@H](C)O)NC(=O)[C@H](CCCNC(=N)N)NC(=O)[C@H](CO)NC3=O)NC(=O)[C@H](CCCCN)NC(=O)[C@H](CC(=O)O)NC(=O)[C@H](CC(N)=O)NC(=O)[C@H](CC(=O)O)NC(=O)[C@@H]2CCCN2C1=O [compound 433] (H-DCLGAMRKCIPDNDKCCRPNLVCSRTHKWCAYVF-NH2; disulfide 2-17, 9-23, 16-30) | > 5 | > 5 | > 5
CC[C@H](C)[C@@H]1NC(=O)[C@@H]2CSSC[C@@H]3NC(=O)[C@H](C(C)C)NC(=O)[C@H](CC(C)C)NC(=O)[C@H](CC(N)=O)NC(=O)[C@@H]4CCCN4C(=O)[C@H](CCCNC(=N)N)NC(=O)[C@H](CSSC[C@H](NC(=O)[C@@H](N)CC(=O)O)C(=O)N[C@@H](CC(C)C)C(=O)NCC(=O)N[C@@H](C)C(=O)N[C@@H](CCSC)C(=O)N[C@@H](CCCNC(=N)N)C(=O)N[C@@H](CCCCN)C(=O)N2)NC(=O)[C@H](CSSC[C@@H](C(=O)N[C@@H](CCCCN)C(=O)N[C@@H](Cc2ccc(O)cc2)C(=O)N[C@H](C(=O)N[C@@H](Cc2ccccc2)C(N)=O)C(C)C)NC(=O)[C@H](C)NC(=O)[C@H](CCCCN)NC(=O)[C@H](Cc2c[nH]cn2)NC(=O)[C@H]([C@@H](C)O)NC(=O)[C@H](CCCNC(=N)N)NC(=O)[C@H](CO)NC3=O)NC(=O)[C@H](CCCCN)NC(=O)[C@H](CC(=O)O)NC(=O)[C@H](CC(N)=O)NC(=O)[C@H](CC(=O)O)NC(=O)[C@@H]2CCCN2C1=O [compound 434] (H-DCLGAMRKCIPDNDKCCRPNLVCSRTHKACKYVF-NH2; disulfide 2-17, 9-23, 16-30) | > 5 | > 5 | > 5
CC[C@H](C)[C@@H]1NC(=O)[C@@H]2CSSC[C@@H]3NC(=O)[C@H](C(C)C)NC(=O)[C@H](CC(C)C)NC(=O)[C@H](CC(N)=O)NC(=O)[C@@H]4CCCN4C(=O)[C@H](CCCNC(=N)N)NC(=O)[C@H](CSSC[C@H](NC(=O)[C@@H](N)CC(=O)O)C(=O)N[C@@H](CC(C)C)C(=O)NCC(=O)N[C@@H](C)C(=O)N[C@@H](CCSC)C(=O)N[C@@H](CCCNC(=N)N)C(=O)N[C@@H](CCCCN)C(=O)N2)NC(=O)[C@H](CSSC[C@@H](C(=O)N[C@@H](CCCCN)C(=O)N[C@@H](Cc2ccc(O)cc2)C(=O)N[C@H](C(=O)N[C@@H](Cc2ccccc2)C(N)=O)C(C)C)NC(=O)[C@H](Cc2c[nH]c4ccccc24)NC(=O)[C@H](CCC(=O)O)NC(=O)[C@H](Cc2c[nH]cn2)NC(=O)[C@H]([C@@H](C)O)NC(=O)[C@H](CCCNC(=N)N)NC(=O)[C@H](CO)NC3=O)NC(=O)[C@H](CCCCN)NC(=O)[C@H](CC(=O)O)NC(=O)[C@H](CC(N)=O)NC(=O)[C@H](CC(=O)O)NC(=O)[C@@H]2CCCN2C1=O [compound 435] | > 5 | > 5 | 3.66
CC[C@H](C)[C@@H]1NC(=O)[C@@H]2CSSC[C@@H]3NC(=O)[C@H](C(C)C)NC(=O)[C@H](CC(C)C)NC(=O)[C@H](CC(N)=O)NC(=O)[C@@H]4CCCN4C(=O)[C@H](CCCNC(=N)N)NC(=O)[C@H](CSSC[C@H](NC(=O)[C@@H](N)CC(=O)O)C(=O)N[C@@H](CC(C)C)C(=O)NCC(=O)N[C@@H](C)C(=O)N[C@@H](CCSC)C(=O)N[C@@H](CCC(=O)O)C(=O)N[C@@H](CCCCN)C(=O)N2)NC(=O)[C@H](CSSC[C@@H](C(=O)N[C@@H](CCCCN)C(=O)N[C@@H](Cc2ccc(O)cc2)C(=O)N[C@H](C(=O)N[C@@H](Cc2ccccc2)C(N)=O)C(C)C)NC(=O)[C@H](Cc2c[nH]c4ccccc24)NC(=O)[C@H](CCCCN)NC(=O)[C@H](Cc2c[nH]cn2)NC(=O)[C@H]([C@@H](C)O)NC(=O)[C@H](CCCNC(=N)N)NC(=O)[C@H](CO)NC3=O)NC(=O)[C@H](CCCCN)NC(=O)[C@H](CC(=O)O)NC(=O)[C@H](CC(N)=O)NC(=O)[C@H](CC(=O)O)NC(=O)[C@@H]2CCCN2C1=O [compound 436] (H-DCLGAMEKCIPDNDKCCRPNLVCSRTHKWCKYVF-NH2; disulfide 2-17, 9-23, 16-30) | > 5 | > 5 | > 5
CC[C@H](C)[C@@H]1NC(=O)[C@@H]2CSSC[C@@H]3NC(=O)[C@H](C(C)C)NC(=O)[C@H](CC(C)C)NC(=O)[C@H](CC(N)=O)NC(=O)[C@@H]4CCCN4C(=O)[C@H](CCCNC(=N)N)NC(=O)[C@H](CSSC[C@H](NC(=O)[C@@H](N)CC(=O)O)C(=O)N[C@@H](CC(C)C)C(=O)NCC(=O)N[C@@H](C)C(=O)N[C@@H](CCSC)C(=O)N[C@@H](CCCNC(=N)N)C(=O)N[C@@H](CCCCN)C(=O)N2)NC(=O)[C@H](CSSC[C@@H](C(=O)N[C@@H](CCCCN)C(=O)N[C@@H](Cc2ccc(O)cc2)C(=O)N[C@H](C(=O)N[C@@H](Cc2ccccc2)C(N)=O)C(C)C)NC(=O)[C@H](CCC(=O)O)NC(=O)[C@H](CCCCN)NC(=O)[C@H](Cc2c[nH]cn2)NC(=O)[C@H]([C@@H](C)O)NC(=O)[C@H](CCCNC(=N)N)NC(=O)[C@H](CO)NC3=O)NC(=O)[C@H](CCCCN)NC(=O)[C@H](CC(=O)O)NC(=O)[C@H](CC(N)=O)NC(=O)[C@H](CC(=O)O)NC(=O)[C@@H]2CCCN2C1=O [compound 437] (H-DCLGAMRKCIPDNDKCCRPNLVCSRTHKECKYVF-NH2; disulfide 2-17, 9-23, 16-30) | 6.09 | 11.9 | 9.26
